In PubChem BioAssay (NCI):
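Five concentrations, 48 hours, 96-well plates. The concentration for 50% growth inhibition is given as GI50. TGI marks complete inhibition of growth.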

What was measured:
Assay in all cases: NCI tumour cell line growth inhibition, 48 h
MCF7 breast = system: MCF7 breast
EKVX NSCLC = system: EKVX NSCLC
786-0 renal = system: 786-0 renal
OVCAR-8 ovarian = system: OVCAR-8 ovarian
SW-620 colon = system: SW-620 colon
NCI-H226 lung = system: NCI-H226 lung
HCT-116 colon = system: HCT-116 colon
MDA-MB-231 breast = system: MDA-MB-231 breast
OVCAR-4 ovarian = system: OVCAR-4 ovarian
HOP-92 NSCLC = system: HOP-92 NSCLC
HCC-2998 colon = system: HCC-2998 colon
HT29 colon = system: HT29 colon
OVCAR-3 ovarian = system: OVCAR-3 ovarian
LOX IMVI melanoma = system: LOX IMVI melanoma
CAKI-1 renal = system: CAKI-1 renal
M14 melanoma = system: M14 melanoma
MDA-MB-435 = system: MDA-MB-435
UO-31 renal = system: UO-31 renal
ACHN renal = system: ACHN renal
MALME-3M melanoma = system: MALME-3M melanoma
NCI-H23 lung = system: NCI-H23 lung
SK-MEL-28 melanoma = system: SK-MEL-28 melanoma
SNB-75 CNS = system: SNB-75 CNS
SK-MEL-5 melanoma = system: SK-MEL-5 melanoma
HS 578T breast = system: HS 578T breast
SN12C renal = system: SN12C renal
U251 CNS = system: U251 CNS
SNB-19 CNS = system: SNB-19 CNS
PC-3 prostate = system: PC-3 prostate
TK-10 renal = system: TK-10 renal
A549 NSCLC = system: A549 NSCLC
K-562 leukemia = system: K-562 leukemia
UACC-257 melanoma = system: UACC-257 melanoma
NCI-H460 lung = system: NCI-H460 lung
KM12 colon = system: KM12 colon
DU-145 prostate = system: DU-145 prostate
MOLT-4 leukemia = system: MOLT-4 leukemia
HL-60(TB) leukemia = system: HL-60(TB) leukemia
SF-295 CNS = system: SF-295 CNS
NCI/ADR-RES ovarian = system: NCI/ADR-RES ovarian
A498 renal = system: A498 renal
COLO 205 colon = system: COLO 205 colon
OVCAR-5 ovarian = system: OVCAR-5 ovarian
T-47D breast = system: T-47D breast
SR leukemia = system: SR leukemia
RXF 393 renal = system: RXF 393 renal
SF-539 CNS = system: SF-539 CNS
RPMI-8226 leukemia = system: RPMI-8226 leukemia
HCT-15 colon = system: HCT-15 colon
SK-MEL-2 melanoma = system: SK-MEL-2 melanoma
NCI-H522 lung = system: NCI-H522 lung
HOP-62 NSCLC = system: HOP-62 NSCLC
BT-549 breast = system: BT-549 breast
CCRF-CEM leukemia = system: CCRF-CEM leukemia
SF-268 CNS = system: SF-268 CNS

`Cc1[nH]c2cc(F)ccc2c1-c1nc2c3cccnc3c3ncccc3c2[nH]1` showed a GI50 (MCF7 breast) of 319 nM, a TGI (MCF7 breast) of 1650 nM and a GI50 (EKVX NSCLC) of 320 nM. It also gave a TGI (EKVX NSCLC) of 2690 nM, a GI50 (786-0 renal) of 243 nM and a TGI (786-0 renal) of 973 nM. The GI50 (OVCAR-8 ovarian) was 216 nM, the TGI (OVCAR-8 ovarian) was 1220 nM and the GI50 (SW-620 colon) was 282 nM. The TGI (SW-620 colon) was 1840 nM, the GI50 (NCI-H226 lung) was 168 nM and the TGI (NCI-H226 lung) was 812 nM. It also gave a GI50 (HCT-116 colon) of 164 nM, a TGI (HCT-116 colon) of 1500 nM and a GI50 (MDA-MB-231 breast) of 409 nM. The TGI (MDA-MB-231 breast) was 2400 nM, the GI50 (OVCAR-4 ovarian) was 43.8 nM and the TGI (OVCAR-4 ovarian) was 1230 nM. The GI50 (HOP-92 NSCLC) was 204 nM, the TGI (HOP-92 NSCLC) was 1410 nM and the GI50 (HCC-2998 colon) was 117 nM. For the same molecule, the TGI (HCC-2998 colon) was 1300 nM, the GI50 (HT29 colon) was 436 nM and the TGI (HT29 colon) was 1660 nM. For the same molecule, the GI50 (OVCAR-3 ovarian) was 209 nM, the TGI (OVCAR-3 ovarian) was 1560 nM and the GI50 (LOX IMVI melanoma) was 47.2 nM. For the same molecule, the TGI (LOX IMVI melanoma) was 697 nM, the GI50 (CAKI-1 renal) was 289 nM and the TGI (CAKI-1 renal) was 1190 nM. The GI50 (M14 melanoma) was 187 nM, the TGI (M14 melanoma) was 667 nM and the GI50 (MDA-MB-435) was 342 nM. It also gave a TGI (MDA-MB-435) of 1480 nM, a GI50 (UO-31 renal) of 266 nM and a TGI (UO-31 renal) of 929 nM. It also gave a GI50 (ACHN renal) of 254 nM, a TGI (ACHN renal) of 1450 nM and a GI50 (MALME-3M melanoma) of 202 nM. It also gave a TGI (MALME-3M melanoma) of 769 nM, a GI50 (NCI-H23 lung) of 343 nM and a TGI (NCI-H23 lung) of 1890 nM. It also gave a GI50 (SK-MEL-28 melanoma) of 239 nM, a TGI (SK-MEL-28 melanoma) of 1720 nM and a GI50 (SNB-75 CNS) of 473 nM. The TGI (SNB-75 CNS) was 1840 nM, the GI50 (SK-MEL-5 melanoma) was 169 nM and the TGI (SK-MEL-5 melanoma) was 726 nM. The GI50 (HS 578T breast) was 1090 nM, the TGI (HS 578T breast) was 4740 nM and the GI50 (SN12C renal) was 399 nM. For the same molecule, the TGI (SN12C renal) was 3380 nM, the GI50 (U251 CNS) was 121 nM and the TGI (U251 CNS) was 1220 nM. It also gave a GI50 (SNB-19 CNS) of 257 nM, a TGI (SNB-19 CNS) of 3870 nM and a GI50 (PC-3 prostate) of 183 nM. It also gave a TGI (PC-3 prostate) of 2930 nM, a GI50 (TK-10 renal) of 396 nM and a TGI (TK-10 renal) of 2340 nM. The GI50 (A549 NSCLC) was 381 nM, the TGI (A549 NSCLC) was 2350 nM and the GI50 (K-562 leukemia) was 324 nM. The TGI (K-562 leukemia) was 4770 nM, the GI50 (UACC-257 melanoma) was 228 nM and the TGI (UACC-257 melanoma) was 833 nM. For the same molecule, the GI50 (NCI-H460 lung) was 322 nM, the TGI (NCI-H460 lung) was 1030 nM and the GI50 (KM12 colon) was 379 nM. The TGI (KM12 colon) was 1780 nM, the GI50 (DU-145 prostate) was 191 nM and the TGI (DU-145 prostate) was 1800 nM. The GI50 (MOLT-4 leukemia) was 170 nM, the TGI (MOLT-4 leukemia) was 642 nM and the GI50 (HL-60(TB) leukemia) was 205 nM. For the same molecule, the TGI (HL-60(TB) leukemia) was 564 nM, the GI50 (SF-295 CNS) was 253 nM and the TGI (SF-295 CNS) was 818 nM. For the same molecule, the GI50 (NCI/ADR-RES ovarian) was 550 nM, the TGI (NCI/ADR-RES ovarian) was 5370 nM and the GI50 (A498 renal) was 263 nM. It also gave a TGI (A498 renal) of 1060 nM, a GI50 (COLO 205 colon) of 178 nM and a TGI (COLO 205 colon) of 1260 nM. The GI50 (OVCAR-5 ovarian) was 573 nM, the TGI (OVCAR-5 ovarian) was 2650 nM and the GI50 (T-47D breast) was 341 nM. The TGI (T-47D breast) was 1280 nM, the GI50 (SR leukemia) was 72.3 nM and the TGI (SR leukemia) was 797 nM. For the same molecule, the GI50 (RXF 393 renal) was 190 nM, the TGI (RXF 393 renal) was 785 nM and the GI50 (SF-539 CNS) was 287 nM. For the same molecule, the TGI (SF-539 CNS) was 1290 nM, the GI50 (RPMI-8226 leukemia) was 771 nM and the TGI (RPMI-8226 leukemia) was 2910 nM. The GI50 (HCT-15 colon) was 359 nM, the TGI (HCT-15 colon) was 18800 nM and the GI50 (SK-MEL-2 melanoma) was 504 nM. The TGI (SK-MEL-2 melanoma) was 1750 nM, the GI50 (NCI-H522 lung) was 391 nM and the TGI (NCI-H522 lung) was 1460 nM. The GI50 (HOP-62 NSCLC) was 270 nM, the TGI (HOP-62 NSCLC) was 1270 nM and the GI50 (BT-549 breast) was 215 nM. For the same molecule, the TGI (BT-549 breast) was 1570 nM, the GI50 (CCRF-CEM leukemia) was 67.2 nM and the TGI (CCRF-CEM leukemia) was 644 nM. The GI50 (SF-268 CNS) was 210 nM and the TGI (SF-268 CNS) was 2200 nM.
